Test results: US20130165368A1, “ANTIMICROBIAL COMPOUNDS” (priority 2010, published 2013)
Like-named read-outs stand apart in the source and are kept apart here.

Legend:
Assay type in all cases: cell-based
Providencia rettgeri = experiment: MIC agar dilution, micro-organism 3 (7475); conditions: Providencia rettgeri 7475
Protocol: (§1) Throughout the period of testing the microbial strains were subcultured and incubated for 18-20 hours at 37° C. on a weekly basis. Horse blood agar plates were used to sustain the micro-organisms both prior to and throughout testing. The alkoxylated alkanols listed in Table II below were obtained (these are obtainable from Sigma-Aldrich Company Ltd, Dorset, England), each having a GC purity of at least 97%.
(§2) Molar equivalent concentrations were used to allow comparison between compounds of differing molecular mass. Due to weighing difficulties, any compound in solid form was melted in a water bath prior to dilution. To make ten-times strength concentrations, which takes into account agar dilution, 0.0352 mmol of each compound was weighed into plastic universal bottles and 4 mL of sterile distilled water (SDW) was added. To produce a homogenous emulsion the universals were vortexed; once achieved the emulsions were serial diluted by adding 2 mL to 2 mL of SDW.
(§3) Myristyl alcohol and lauryl alcohol were re-weighed and dissolved in 25 μL of the polar solvent 1-methyl-2-pyrrolidone (M6762; Sigma-Aldrich) in sterile glass universals due to an inability to achieve an even suspension. To maintain an even emulsion in the presence of SDW 37.5 μL of the non-ionic detergent Tween 20 (P1379, Sigma-Aldrich) was also added. 3.9375 mL of SDW was added to these, to create a 4 mL volume; they were vortexed and diluted as before.
(§4) For every 100 mL of Isosensitest agar (IST) (CM0471; Oxoid, Basingstoke, England), 3.1 g of the IST powder was added to 100 mL SDW (as per manufacturer's instructions) and sterilised for 15 minutes at 121° C. Once sterilised, the molten agar was cooled to 50° C. in a water-bath. Subsequently 4.8 g of CCEY powder (BC2160; Bioconnections, Wetherby, England), also known as Brazier's medium, was added to 100 mL SDW for every 100 mL of agar needed. This was then sterilised for 15 minutes at 121° C. Once sterilised the molten agar was cooled to 50° C. in a water-bath and 4 mL of egg-yolk emulsion (S2073; TCS Biosciences Ltd, Buckingham, United Kingdom) and 1 mL of lysed defibrinated horse blood (HB035; TCS Biosciences Ltd, Buckingham, United Kingdom) were also added for every 100 mL needed. Horse blood lysis is achieved by dilution to half concentration with SDW; when fully lysed the mixture will turn dark red in colour.
(§5) 18 mL agar was added to each universal and then poured into sterile Petri dishes. This step creates a 1/10 dilution resulting in agar plates of the required strength. Control plates for each set of strains were created by adding 18 mL of agar to 2 mL of SDW.
(§6) Suspensions of each bacterial species were prepared with a density equal to that of a 0.5 McFarland standard using a densitometer. All suspensions were made using sterile distilled water and fresh 18-20 hour cultures. As a 0.5 McFarland standard contains 1.5×10^8 CFU/mL and the multipoint inoculators applies 1 μL spots of liquid, each bacterial suspension was diluted 1/15 (20 μL suspension to 280 μL sterile distilled water).
(§7) Bacterial suspensions were prepared from fresh 18-24 hour cultures as previously described. 1 μL of each strain was inoculated onto all 100 agar plates containing a different chemical concentration and the 2 control plates. This was done using a multipoint inoculator which inoculates 20 strains per plate. All plates were incubated for 22 hours at 37° C. in aerobic conditions.
(§8) Each plate was examined for bacterial growth after 22 and 48 hours, with each being incubated in between examinations. A positive result was recorded as growth of ≧10 colonies. A negative result was recorded as growth of <10 colonies as this is equivalent to 99.9% inhibition. The lowest concentration of chemical that inhibited growth was recorded as the MIC. The results are recorded in Table IV below, where the numbers are quoted in mmol/L. […]

Staphylococcus aureus = experiment: MIC agar dilution, micro-organism 13 (6571); conditions: Staphylococcus aureus 6571
Protocol: as §1, §2, §3, §4, §5, §6, §7, §8

Listeria monocytogenes = experiment: MIC agar dilution, micro-organism 15 (11994); conditions: Listeria monocytogenes 11994
Protocol: as §1, §2, §3, §4, §5, §6, §7, §8

Steptococcus pyogenes = experiment: MIC agar dilution, micro-organism 11 (8306); conditions: Steptococcus pyogenes 8306
Protocol: as §1, §2, §3, §4, §5, §6, §7, §8

[1] = test system: Staphylococcus epidermidis; experiment: MIC agar dilution, micro-organism 14 (11047); conditions: Staphylococcus epidermidis 11047
Protocol: as §1, §2, §3, §4, §5, §6, §7, §8

[2] = test system: Staphylococcus aureus (MRSA); experiment: MIC agar dilution, micro-organism 12 (11939); conditions: Staphylococcus aureus (MRSA) 11939
Protocol: as §1, §2, §3, §4, §5, §6, §7, §8

Enterococcus faecalis = experiment: MIC agar dilution, micro-organism 17 (775); conditions: Enterococcus faecalis 775
Protocol: as §1, §2, §3, §4, §5, §6, §7, §8

Bacillus subtilis = experiment: MIC agar dilution, micro-organism 18 (9372); conditions: Bacillus subtilis 9372
Protocol: as §1, §2, §3, §4, §5, §6, §7, §8

Escherichia coli = experiment: MIC agar dilution, micro-organism 1 (10418); conditions: Escherichia coli 10418
Protocol: as §1, §2, §3, §4, §5, §6, §7, §8

Candida albicans = experiment: MIC agar dilution, micro-organism 19 (90028); conditions: Candida albicans 90028
Protocol: as §1, §2, §3, §4, §5, §6, §7, §8

Enterococcus faecium = experiment: MIC agar dilution, micro-organism 16 (7171); conditions: Enterococcus faecium 7171
Protocol: as §1, §2, §3, §4, §5, §6, §7, §8

Candida glabrata = experiment: MIC agar dilution, micro-organism 20 (3943); conditions: Candida glabrata 3943
Protocol: as §1, §2, §3, §4, §5, §6, §7, §8

[3] = Staphylococcus aureus, 22 h, 22 hrs, read-out: MIC
[4] = Staphylococcus aureus, 48 h, 48 hrs, read-out: MIC
[5] = Staphylococcus aureus, MRSA, 22 h, 22 hrs, read-out: MIC
[6] = Staphylococcus aureus, MRSA, 48 h, 48 hrs, read-out: MIC
[7] = Nakaseomyces glabratus, 22 h, 22 hrs, read-out: MIC
[8] = Nakaseomyces glabratus, 48 h, 48 hrs, read-out: MIC

Measured: MIC

CCCCCCCCCCCCCCCCOCCOCCO [C2]
>880 µM: Providencia rettgeri; 22 hrs | Providencia rettgeri; 48 hrs | Staphylococcus aureus; 22 hrs | Staphylococcus aureus; 48 hrs | Listeria monocytogenes; 22 hrs | Listeria monocytogenes; 48 hrs | Steptococcus pyogenes; 48 hrs | [1]; 22 hrs | [1]; 48 hrs | [2]; 22 hrs | [2]; 48 hrs | Enterococcus faecalis; 22 hrs | Enterococcus faecalis; 48 hrs | Bacillus subtilis; 22 hrs | Bacillus subtilis; 48 hrs | Escherichia coli; 22 hrs | Escherichia coli; 48 hrs | Candida albicans; 22 hrs | Candida albicans; 48 hrs | Enterococcus faecium; 22 hrs | Enterococcus faecium; 48 hrs | Candida glabrata; 48 hrs
880 µM: Steptococcus pyogenes; 22 hrs | Candida glabrata; 22 hrs

CCCCCCCCCCCCO [L0, 1-Dodecanol, reference compound]
> 880 µM: Providencia rettgeri; 22 hrs, read-out: MIC | Providencia rettgeri; 48 hrs, read-out: MIC | Listeria monocytogenes; 22 hrs, read-out: MIC | Listeria monocytogenes; 48 hrs, read-out: MIC | [1]; 22 hrs, read-out: MIC | [1]; 48 hrs, read-out: MIC | Enterococcus faecalis; 22 hrs, read-out: MIC | Enterococcus faecalis; 48 hrs, read-out: MIC | Bacillus subtilis; 22 hrs, read-out: MIC | Bacillus subtilis; 48 hrs, read-out: MIC | Escherichia coli; 22 hrs, read-out: MIC | Escherichia coli; 48 hrs, read-out: MIC | Candida albicans; 22 hrs, read-out: MIC | Candida albicans; 48 hrs, read-out: MIC | Enterococcus faecium; 22 hrs, read-out: MIC | Enterococcus faecium; 48 hrs, read-out: MIC
≥ 880 µM: Staphylococcus aureus; [4] | Steptococcus pyogenes; 48 h, 48 hrs, read-out: MIC | [2]; [6] | Candida glabrata; [8]
440 µM: Staphylococcus aureus; [3] | Steptococcus pyogenes; 22 h, 22 hrs, read-out: MIC | [2]; [5] | Candida glabrata; [7]

CCCCCCCCCCCCCCO [M0, 1-Tetradecanol, reference compound]
110 µM: [1]; 22 hrs, read-out: MIC | [2]; [5] | [2]; [6] | Enterococcus faecalis; 48 hrs, read-out: MIC
220 µM: Steptococcus pyogenes; 22 h, 22 hrs, read-out: MIC | Steptococcus pyogenes; 48 h, 48 hrs, read-out: MIC | [1]; 48 hrs, read-out: MIC | Enterococcus faecium; 48 hrs, read-out: MIC
440 µM: Staphylococcus aureus; [3] | Staphylococcus aureus; [4]
> 880 µM: Providencia rettgeri; 22 hrs, read-out: MIC | Providencia rettgeri; 48 hrs, read-out: MIC | Listeria monocytogenes; 22 hrs, read-out: MIC | Listeria monocytogenes; 48 hrs, read-out: MIC | Enterococcus faecalis; 22 hrs, read-out: MIC | Bacillus subtilis; 22 hrs, read-out: MIC | Bacillus subtilis; 48 hrs, read-out: MIC | Escherichia coli; 22 hrs, read-out: MIC | Escherichia coli; 48 hrs, read-out: MIC | Candida albicans; 22 hrs, read-out: MIC | Candida albicans; 48 hrs, read-out: MIC | Enterococcus faecium; 22 hrs, read-out: MIC | Candida glabrata; [7] | Candida glabrata; [8]

CCCCCCCCCCCCCCOCCOCCOCCOCCOCCOCCOCCOCCO [M8, Octaethylene Glycol Monotetradecyl Ether]
110 µM: Staphylococcus aureus; [3] | Staphylococcus aureus; [4] | Bacillus subtilis; 22 hrs, read-out: MIC | Bacillus subtilis; 48 hrs, read-out: MIC
440 µM: [2]; [5] | [2]; [6]
550 µM: Steptococcus pyogenes; 22 h, 22 hrs, read-out: MIC
220 µM: [1]; 22 hrs, read-out: MIC | [1]; 48 hrs, read-out: MIC
55 µM: Steptococcus pyogenes; 48 h, 48 hrs, read-out: MIC | Enterococcus faecalis; 22 hrs, read-out: MIC | Enterococcus faecalis; 48 hrs, read-out: MIC
> 880 µM: Providencia rettgeri; 22 hrs, read-out: MIC | Providencia rettgeri; 48 hrs, read-out: MIC | Listeria monocytogenes; 22 hrs, read-out: MIC | Listeria monocytogenes; 48 hrs, read-out: MIC | Escherichia coli; 22 hrs, read-out: MIC | Escherichia coli; 48 hrs, read-out: MIC | Candida albicans; 22 hrs, read-out: MIC | Candida albicans; 48 hrs, read-out: MIC | Enterococcus faecium; 22 hrs, read-out: MIC | Enterococcus faecium; 48 hrs, read-out: MIC | Candida glabrata; [7] | Candida glabrata; [8]

CCCCCCCCCCCCCCCCCCO [S0, 1-Octadecanol, reference compound]
> 880 µM: Providencia rettgeri; 22 hrs, read-out: MIC | Providencia rettgeri; 48 hrs, read-out: MIC | Staphylococcus aureus; [3] | Staphylococcus aureus; [4] | Listeria monocytogenes; 22 hrs, read-out: MIC | Listeria monocytogenes; 48 hrs, read-out: MIC | [1]; 22 hrs, read-out: MIC | [1]; 48 hrs, read-out: MIC | [2]; [5] | [2]; [6] | Enterococcus faecalis; 22 hrs, read-out: MIC | Enterococcus faecalis; 48 hrs, read-out: MIC | Bacillus subtilis; 22 hrs, read-out: MIC | Bacillus subtilis; 48 hrs, read-out: MIC | Escherichia coli; 22 hrs, read-out: MIC | Escherichia coli; 48 hrs, read-out: MIC | Candida albicans; 22 hrs, read-out: MIC | Candida albicans; 48 hrs, read-out: MIC | Enterococcus faecium; 22 hrs, read-out: MIC | Enterococcus faecium; 48 hrs, read-out: MIC
880 µM: Steptococcus pyogenes; 22 h, 22 hrs, read-out: MIC | Steptococcus pyogenes; 48 h, 48 hrs, read-out: MIC | Candida glabrata; [7] | Candida glabrata; [8]
